Here are results for two compounds from patent publication US5183828A, “Polyhydroxybenzoic acid derivatives” (priority 1990, dated 1993).

Each structure is given as a SMILES string. Where “and” joins values, the source holds several entries; their conditions need not be identical. Identical values can stand only once. Counter-ions that a name gives are not always drawn.

For assay [1], the system named is L-1210 Leukemia. Description: activity vs L-1210 leukemia (T/C % survival time), Table 3. The format is in vivo, mice. The settings on record: >130 significant. The text has this: 3,4-Dihydroxybenzamidoxime and 3,4,5-trihydroxybenzamidoxime were subjected to a further series of tests against various transplanted tumors in mice according to the following protocols:
For L-1210 lymphoid leukemia, 20 grams CDF1 or BDF1 mice […] ip with 10^5 leukemia cells. The drug was given one day after tumor inoculation continued for an additional eight days. The mean survival time for the treated animal was compared to that of the control group. In the table, column 1 gives the name of the compound, column 2 the dose levels, and column 3 treated over control percent survival time. (In other words, a figure of 175 indicates a 75% increase in survival time.)

The nature of assay [2]: scavenging of generated tyrosine free radical by pulse radiolysis. As for the experimental part: Additional free radical scavenging potential of a compound of this invention was measured on a generated tyrosine free radical. There is evidence that a tyrosine free radical is formed as part of the mammalian ribonucleotide reductase enzyme during the conversion of ribonucleotides to deoxyribonucleotides--see L. Akerblom, et al. Proc. Natl. Acad. Sci. USA, 78, 2159-2163 (1981). The method for the generation of the tyrosine free radical and its destruction by a compound of this invention was accomplished by pulse radiolysis experiments at Brunel University, […] England on the Brunel 4 MeV linear accelerator using a 1.5 cm optical cell and a 200 ns pulse delivering a dose of approximately 1 krad as measured by thiocyanate dosimetry. All solutions were purged with nitrogen using a syringe-deaerating technique prior to use. The detailed description of the methodology can be found in R. L. Willson, Chemistry and Industry, 183-193 (1977).
For the generation of the tyrosine radical, sodium azide was utilized as an intermediate between the pulse radiolysis generated free electron and tyrosine. […] See also I. K. Larsen et al., Eur. J. Biochem, 125, 75-81 (1982).

The subject of assay [3] is Colon 38. Description: activity vs colon 38 (T/C % median tumor weight), Table 5. It is filed as in vivo. As for the experimental part:
A compound of this invention was also tested on the solid colon tumor model, colon 38. The tumor was implanted subcutaneously and the drug injected intraperitoneally twice a day on day two (seven hours apart) and twice on day nine. The median tumor weight estimated from tumor diameter is the parameter of tumor inhibition and is measured on day 20. The median tumor weight of treated versus control=T/C percent.

Assay [4] has as its target T1, Δ^5-lipoxygenase (Rattus norvegicus, UniProt P12527).
T1 construct: supernatant fraction of lysed rat basophilic leukemia (RBL-1) cells; endogenous in cells; host or cells: RBL-1 cells, 49,000 g supernatant of homogenate
T1 sequence (P12527 1-673): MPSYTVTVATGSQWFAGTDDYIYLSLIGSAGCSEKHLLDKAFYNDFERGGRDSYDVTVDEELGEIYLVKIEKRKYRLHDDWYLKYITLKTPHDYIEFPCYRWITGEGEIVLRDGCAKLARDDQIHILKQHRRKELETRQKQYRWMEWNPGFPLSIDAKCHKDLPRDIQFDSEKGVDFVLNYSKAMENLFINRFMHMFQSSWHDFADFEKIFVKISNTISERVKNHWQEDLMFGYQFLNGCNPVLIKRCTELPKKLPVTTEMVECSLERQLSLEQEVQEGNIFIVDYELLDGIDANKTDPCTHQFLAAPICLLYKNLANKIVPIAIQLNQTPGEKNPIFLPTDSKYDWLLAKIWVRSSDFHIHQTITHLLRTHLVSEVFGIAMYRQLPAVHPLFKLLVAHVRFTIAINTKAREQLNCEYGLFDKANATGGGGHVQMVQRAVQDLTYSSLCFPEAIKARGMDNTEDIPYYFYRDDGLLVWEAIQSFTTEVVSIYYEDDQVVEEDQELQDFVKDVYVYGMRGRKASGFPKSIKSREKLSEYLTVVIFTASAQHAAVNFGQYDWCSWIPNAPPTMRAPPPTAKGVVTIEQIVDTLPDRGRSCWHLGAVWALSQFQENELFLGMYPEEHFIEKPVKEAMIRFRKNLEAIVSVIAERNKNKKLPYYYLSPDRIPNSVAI
Description: ability to inhibit Δ^5-lipoxygenase. The settings on record: RBL-1 cell supernatant. It is filed as biochemical. How it is done: This enzyme is believed to initiate the synthesis of slow reacting substance of […]), an important mediator in the pathogenesis of asthma. Thus, a drug capable of inhibiting this enzyme would also help to prevent asthmatic attacks. In this determination, Δ^5 -lipoxygenase was derived from the supernatant fraction of lysed rat basophilic leukemia (RBL-1) cells. […] The Δ^5 -lipoxygenase was derived from RBL-1 cells which were lysed by homogenization in ice-cold buffer (50 mM Tris-HCl buffer, pH 7.2, containing 1 mM EDTA and 14 uM indomethacin). The homogenate was centrifuged at 4 ° C. at 49,000 g for 20 min and the resulting supernatant fraction was used as the source of Δ^5 -lipoxygenase. The enzyme was assayed at 37° using 6.7 uM (0.39 uCi/ml) [1-14C]arachidonic acid as the substrate in 50 mM Tris-HCl buffer, pH 7.2, containing 1 mM gluthatione, 3 mM CaCl2, 14 uM indomethacin, and 0.25 to 0.50 mM EDTA. […] The effect of compounds on Δ^5 -lipoxygenase activity was determined by preincubating the enzyme for 10 min at 30° in the presence or absence of various concentrations of the drug prior to addition of substrate.

Assay [5] relates to P388 Leukemia. Description: activity vs P388 leukemia (T/C % survival time), Table 6. The format is in vivo, mice. The following applies: five treatments, >130 significant. How it is done: The following protocol was used:
CDF1 mice were injected ip with 10^6 cells The drug was administered in the first day after tumor inoculation and continued daily for five treatments. The mean survival time of the treated group compared to the non-treated control group equals T/C×100=T/C percent.

Assay [6] concerns arachidonic acid induced ear edema. Description: arachidonic acid induced ear edema assay, Table 10. The format is in vivo, Mice. The settings on record: Experiment 2, 2 mg total dose, topical. As for the experimental part: The compounds of this invention because of their ability to scavenge free-radicals in vivo are capable of modulating inflammation as set forth in the following protocol: Mice received the test compound topically to each side of the right ear one hr prior to the inflammatory challenge, at which time they were challenged (except for the negative control) with 10 microliter of a 2 mg/20 microliter solution of arachidonic acid applied to each side of the right ear. One hour post-challenge, the animals were sacrificed, the right ears removed, and an 8 mm disc punched from each. These discs were then weighed. The following table gives the results of this experiment.

As to `NC(=NO)c1ccc(O)c(O)c1` [3,4-dihydroxybenzamidoxime.HCl, 3,4-dihydroxybenzamidoximehydrochloride], the “t/c % (mean survival time)” value in assay [1] (25 mg/kg) was 130%; in assay [1] (50 mg/kg) it was 137% and 117% and 132% and 146%; in assay [1] (100 mg/kg) it was 128% and 132% and 141% and 133%; in assay [1] (200 mg/kg) it was 175% and 128% and 155% and 186%; in assay [1] (300 mg/kg), 113%. Further, the “rate constant (tyrosine free radical scavenging)” value in assay [2] (pulse radiolysis) is given as 4.5×10^8 M^-1 S^-1. The “times faster scavenger of tyrosine free radical than hydroxyurea” value in assay [2] (vs hydroxyurea) was no less than 100 times. Moreover, the “T/C % (median tumor weight, day 20)” value in assay [3] (800 mg/kg ip, twice on day two and twice on day nine) is given as 87%. In addition, in assay [3] (doses lower than 800 mg/kg), the “activity at lower doses” value is “ineffective”. Besides, in assay [4] (1 uM), the inhibition (as a rule, the share of the control response that was lost under treatment) at 1 µM came out at 25%. In assay [4], this compound gave an inhibition at 10 µM of 94%.

`CCOC(=N)c1cc(O)c(O)c(O)c1` [ethyl 3,4,5-trihydroxybenzamidate-HCl, Ethyl 3,4,5-trihydroxybenzamidate hydrochloride]: the “T/C % (mean survival time)” value in assay [5] (12.5 mg/kg daily) is 104%; in assay [5] (25 mg/kg daily) it was 112%; in assay [5] (50 mg/kg daily), 114%; in assay [5] (100 mg/kg daily, listed as ethyl gallamidate.HCl, hydrochloride) it was 129% and 128%; in assay [5] (200 mg/kg daily, listed as ethyl gallamidate.HCl, hydrochloride), 139% and 123%; in assay [5] (400 mg/kg daily, listed as ethyl gallamidate.HCl, hydrochloride) it was 149% and 160%. For the same compound, in assay [6], the “Percent Inhibition vs. positive control” value came to 35%. Moreover, the “Mean Increase in Weight of Inflammed Ear (± S.E.)” value in assay [6] (positive control 19.0 ± 0.5, p = .000) was 12.3 ± 0.4 mg. In addition, the inhibition at 10 µM in assay [4] stood at 86%.
